Assay results: ChEMBL document CHEMBL1127174, “Inhibition of cartilage breakdown by isothiazolones” (Bioorg Med Chem Lett, 1993)

Species on record: Bos taurus
Assay: In vitro ability to inhibit cartilage breakdown by using 1L-1beta stimulated bovine nasal cartilage assay
Type: functional

IC50 | SMILES
> 30 µM | COc1ccc2c(c1)c(CC(=O)O)c(C)n2C(=O)c1ccc(Cl)cc1 [INDOMETHACIN]
13.5 µM | COc1ccc(-n2sc3ncccc3c2=O)cc1
> 30 µM | COc1ccc2cc([C@H](C)C(=O)O)ccc2c1 [NAPROXEN]
> 30 µM | COc1ccc(-n2sc3ccccc3c2=O)cc1
3 µM | CNC(=O)C(Cc1ccc(OC)cc1)NC(=O)[C@H](CC(C)C)[C@H](C)C(=O)NO (single isomer, unassigned)
3 µM | O=c1c2ccccc2sn1-c1ccccc1
> 30 µM | O=C(Nc1ccccc1)c1ccccc1O [SALICYLANILIDE]
3.7 µM | O=c1c2cccnc2sn1-c1ccc(Cl)cc1
> 30 µM | CN(C)[C@@H]1C(O)=C(C(N)=O)C(=O)[C@@]2(O)C(O)=C3C(=O)c4c(O)cccc4[C@@](C)(O)[C@H]3C[C@@H]12 [TETRACYCLINE]
> 30 µM | Nc1ccccc1C(=O)Nc1ccccc1

SMILES | IC50
O=c1ccsn1-c1ccccc1 | > 30 µM
O=c1c2ccccc2[se]n1-c1ccccc1 [EBSELEN] | 13 µM
O=c1c2ccccc2sn1-c1ccc(Cl)cc1 | 3.6 µM
